Data from US20170349540A1, “HISTONE DEACETYLASE INHIBITORS” (The General Hospital Corporation, priority 2014, published 2017).

What was measured:
[1] = Weight gain of rats during treatment; assay type: in vivo, rat; conditions: daily i.p. treatment
Protocol: Behavioral testing was applied to a cohort of 12 rats. Following 7 days of daily i.p. treatment with i) vehicle (10% DMSO, 10% Tween 80, 80% saline; 2 mL/kg); or solubilized ii) the compound of Example 2 (0.025 mg/kg) or iii) the compound of Example 2 (0.1 mg/kg), rats were exposed to the modified forced swim test (FST). Briefly, FST exposure (15 min exposure, 25° C. tap water, 30 cm water depth) was performed 18-24 h after the previous i.p. treatment, after which rats were returned to their home cages to dry for approximately 2-3 h, then given daily i.p. treatment as before. FST testing was performed one day later (5 min test, 25° C. tap water, 30 cm water depth) with behaviors digitally recorded for subsequent analysis of immobility by a trained reviewer, blinded to treatment groups. Rats were returned to home cages and monitored without treatment for 72 h. […] Animals were then evaluated for locomotor activity in an open field (60 cm square) using automated tracking software (MedAssociates).
Rats were exposed to a 15 min session of forced swimming in 25° C. water (20 cm diameter cylinder, 30 cm water depth). […] After 1 day, rats were tested for immobility time during 5-min FST sessions which were videotaped and scored by a trained observer blinded to treatment groups.

[2] = Intravenous pharmacokinetics and brain distribution assay; assay type: in vivo, male Sprague Dawley rats; conditions: single i.v. dose 1 mg/kg
Protocol: Healthy male Sprague Dawley rats (8-12 weeks old) weighing between 200 to 250 g were procured from In vivo Bioscience, Bengluru, India. Three rats were housed in each cage. Temperature and humidity were maintained at 22±3° C. and 40-70%, respectively and illumination was controlled to give a sequence of 12 h light and 12 h dark cycle. Temperature and humidity were recorded by auto-controlled data logger system. All the animals were provided laboratory rodent diet (Vetcare India Pvt. Ltd, Bengaluru) ad libitum. Reverse osmosis water treated with ultraviolet light was provided ad libitum.
Sprague Dawley rats were intravenously administered a solution formulation of the compound of Example 2 prepared in 10% DMSO, 10% Tween 80, 80% normal saline. The blood samples were collected from a set of three rats at each time point in labeled micro centrifuge tube containing K2EDTA solution as anticoagulant. Plasma samples were separated by centrifugation of whole blood and stored at below −70° C. until bioanalysis. After collection of blood samples at each time point animals were humanely euthanized by CO2 and the brain was collected. Brain samples were homogenized using ice-cold phosphate buffer saline (pH=7.4) and homogenates were stored at below −70° C. until analysis. Total homogenate volume was three times the brain weight. All samples were processed for analysis by protein precipitation using acetonitrile and analyzed with fit-for-purpose LC-MS/MS method (LLOQ=1.01 ng/mL in plasma and brain). Pharmacokinetic parameters were calculated using the non-compartmental analysis tool of Phoenix WinNonlin® (Version 6.3).
The compound of Example 2 (5.89 mg) was added in a labeled bottle, followed by DMSO (2.945 mL), Tween 80 (2.945 mL), and normal saline (23.50 mL), and the resulting mixture was mixed by vortexing after each addition. The solution formulation was sonicated for 2 minutes to obtain a clear solution. After preparation of formulation, 200 μL samples were aliquoted for analysis. […] All formulations were freshly prepared prior to dosing. […]
Concentrations of the compound of Example 2 in rat plasma and brain samples were analyzed with fit-for-purpose by LC-MS/MS method. […] Following centrifugation, 100 µL of clear supernatant was transferred to a 96-well plate and analyzed using LC-MS/MS.
Non-Compartmental-Analysis module in Phoenix WinNonlin® (Version 6.3) was used to assess the pharmacokinetic parameters. […] The areas under the concentration time curve (AUClast and AUCinf) were calculated by linear trapezoidal rule. The terminal elimination rate constant, ke, was determined by regression analysis of the linear terminal portion of the log plasma concentration-time curve. […]

average weight gain of tested rats [1]: not impacted | Kp ([2]; male, Sprague Dawley, rat, brain/plasma, iv, read-out: brain-to-plasma exposure ratio): 8.35 | clearance ([2]; male, Sprague Dawley, rat, plasma, iv): 79 mL/min/kg | half-life ([2]; male, Sprague Dawley, rat, plasma, iv, read-out: elimination half-life (converted)): 54.6 min | Vss relative to the normal volume of total body water (0.7 L/kg) [2]: 6 fold
SMILES: CN(Cc1ccc(/C=C/C(=O)Nc2ccccc2N)cc1)CC12CC3CC(CC(C3)C1)C2 [Example 2, (E)-3-(4-((((3r,5r,7r)-adamantan-1-ylmethyl)(methyl)amino)methyl)phenyl)-N-(2-aminophenyl)acrylamide]
